Results reported in PubChem BioAssay AID1259407 (Chemical Carcinogenesis Research Information System (CCRIS), 2018).
Activity calls are given as the source filed them. How the calls were made is not given here.

Test system: CCRIS mutagenicity, Ames/micronucleus/aberration tests
Experiment: CCRIS mutagenicity studies

Measured: mutagenic call

Cc1c2ccccc2c(C)c2c1ccc1ccccc12
active: End Point: IN VITRO CHROMOSOMAL ABERRATIONS, Test System: CHL/IU CELLS, Metabolic Activation: RAT, LIVER, S-9, PHENOBARBITAL AND 5,6-BENZOFLAVONE active; positive (structural changes) | End Point: IN VITRO MICRONUCLEUS, Test System: CHL/IU CELLS, Metabolic Activation: RAT, LIVER, S-9, PHENOBARBITAL AND 5,6-BENZOFLAVONE active; positive | End Point: IN VITRO MICRONUCLEUS, Test System: CHO CELLS, Metabolic Activation: RAT, LIVER, S-9, AROCLOR 1254 active; positive | End Point: IN VITRO MICRONUCLEUS, Test System: V79 CELLS, Metabolic Activation: RAT, LIVER, S-9, AROCLOR 1254 active; positive | End Point: IN VIVO CHROMOSOMAL ABERRATIONS, Test System: MAMMARY GLAND CELLS, USING DUAL PROBE FISH, Species: RAT, Strain/Sex: SPRAGUE-DAWLEY/FEMALE, Route: INTRAGASTRIC active; positive (hyperdiploidy and polyploidy) | End Point: IN VIVO MICRONUCLEUS, Test System: BLOOD ERYTHROCYTES, Species: MOUSE, Strain/Sex: CD-1/MALE, Route: ORAL active; positive | Test System: AMES SALMONELLA TYPHIMURIUM, Strain/Indicator: TA97, Metabolic Activation: NONE, Method: STANDARD PLATE active; positive | Test System: AMES SALMONELLA TYPHIMURIUM, Strain/Indicator: TA97, Metabolic Activation: RAT, LIVER, S-9, PCB, Method: STANDARD PLATE active; positive | Test System: AMES SALMONELLA TYPHIMURIUM, Strain/Indicator: TA98, Metabolic Activation: NONE, Method: SPIRAL ASSAY active; positive | Test System: AMES SALMONELLA TYPHIMURIUM, Strain/Indicator: TA98, Metabolic Activation: RAT, LIVER, S-9, AROCLOR 1254, Method: SPIRAL ASSAY active; positive | Test System: AMES SALMONELLA TYPHIMURIUM, Strain/Indicator: TA98, Metabolic Activation: RAT, LIVER, S-9, AROCLOR 1254, Method: STANDARD PLATE active; positive | Test System: AMES SALMONELLA TYPHIMURIUM, Strain/Indicator: TA98, Metabolic Activation: RAT, LIVER, S-9, PCB, Method: STANDARD PLATE active; positive | Test System: AMES SALMONELLA TYPHIMURIUM, Strain/Indicator: TA98, Method: STANDARD PLATE active; positive | Test System: AMES SALMONELLA TYPHIMURIUM, Strain/Indicator: TA100, Metabolic Activation: MOUSE, LIVER, MICROSOMES, BENZO[E]PYRENE AND TCDD, Method: STANDARD PLATE active; positive | Test System: AMES SALMONELLA TYPHIMURIUM, Strain/Indicator: TA100, Metabolic Activation: NONE, Method: SPIRAL ASSAY active; positive | Test System: AMES SALMONELLA TYPHIMURIUM, Strain/Indicator: TA100, Metabolic Activation: RAT, INTACT HEPATOCYTES, AROCLOR 1254, Method: PREINCUBATION active; positive | Test System: AMES SALMONELLA TYPHIMURIUM, Strain/Indicator: TA100, Metabolic Activation: RAT, LIVER, MICROSOMES, 3-METHYLCHOLANTHRENE, Method: PREINCUBATION active; positive | Test System: AMES SALMONELLA TYPHIMURIUM, Strain/Indicator: TA100, Metabolic Activation: RAT, LIVER, MICROSOMES, SODIUM PHENOBARBITAL, Method: PREINCUBATION active; positive | Test System: AMES SALMONELLA TYPHIMURIUM, Strain/Indicator: TA100, Metabolic Activation: RAT, LIVER, MICROSOMES, SUDAN III, Method: PREINCUBATION active; positive | Test System: AMES SALMONELLA TYPHIMURIUM, Strain/Indicator: TA100, Metabolic Activation: RAT, LIVER, MICROSOMES, Method: PREINCUBATION active; positive | Test System: AMES SALMONELLA TYPHIMURIUM, Strain/Indicator: TA100, Metabolic Activation: RAT, LIVER, S-9, AROCLOR 1254, Method: SPIRAL ASSAY active; positive | Test System: AMES SALMONELLA TYPHIMURIUM, Strain/Indicator: TA100, Metabolic Activation: RAT, LIVER, S-9, AROCLOR 1254, Method: STANDARD PLATE active; positive | Test System: AMES SALMONELLA TYPHIMURIUM, Strain/Indicator: TA100, Metabolic Activation: RAT, LIVER, S-9, EUGENOL, Method: PREINCUBATION active; positive | Test System: AMES SALMONELLA TYPHIMURIUM, Strain/Indicator: TA100, Metabolic Activation: RAT, LIVER, S-9, KC500 OR PHENOBARBITAL, Method: LIQUID SUSPENSION active; positive | Test System: AMES SALMONELLA TYPHIMURIUM, Strain/Indicator: TA100, Metabolic Activation: RAT, LIVER, S-9, PCB, Method: STANDARD PLATE active; positive | Test System: AMES SALMONELLA TYPHIMURIUM, Strain/Indicator: TA100, Metabolic Activation: RAT, LIVER, S-9, PHENOBARBITAL, Method: STANDARD PLATE active; positive | Test System: AMES SALMONELLA TYPHIMURIUM, Strain/Indicator: TA100, Metabolic Activation: RAT, LIVER, S-9, Method: PREINCUBATION active; positive | Test System: AMES SALMONELLA TYPHIMURIUM, Strain/Indicator: TA100, Metabolic Activation: RAT, NADPH-FORTIFIED HOMOGENIZED HEPATOCYTES, AROCLOR 1254, Method: PREINCUBATION active; positive | Test System: AMES SALMONELLA TYPHIMURIUM, Strain/Indicator: TA100, Metabolic Activation: RAT, SONICATED HEPATOCYTES, AROCLOR 1254, Method: PREINCUBATION active; positive | Test System: AMES SALMONELLA TYPHIMURIUM, Strain/Indicator: TA100, Method: STANDARD PLATE active; positive | Test System: AMES SALMONELLA TYPHIMURIUM, Strain/Indicator: TA1537, Metabolic Activation: NONE, Method: SPIRAL ASSAY active; positive | Test System: AMES SALMONELLA TYPHIMURIUM, Strain/Indicator: TA1537, Metabolic Activation: NONE, Method: STANDARD PLATE active; positive | Test System: AMES SALMONELLA TYPHIMURIUM, Strain/Indicator: TA1537, Metabolic Activation: RAT, LIVER, S-9, AROCLOR 1254, Method: SPIRAL ASSAY active; positive | Test System: AMES SALMONELLA TYPHIMURIUM, Strain/Indicator: TA1537, Metabolic Activation: RAT, LIVER, S-9, AROCLOR 1254, Method: STANDARD PLATE active; positive | Test System: AMES SALMONELLA TYPHIMURIUM, Strain/Indicator: TA1537, Metabolic Activation: RAT, LIVER, S-9, KC500 OR PHENOBARBITAL, Method: LIQUID SUSPENSION active; positive | Test System: AMES SALMONELLA TYPHIMURIUM, Strain/Indicator: TA1538, Metabolic Activation: RAT, LIVER, S-9, AROCLOR 1254, Method: STANDARD PLATE active; positive | Test System: CHINESE HAMSTER OVARY, Strain/Indicator: CHO-K1-BH4 (HGPRT), Metabolic Activation: RAT, LIVER, S-9, AROCLOR, Method: SUSPENSION/PLATE active; positive | Test System: CHINESE HAMSTER V-79, Strain/Indicator: V-79/6-THIOGUANINE, Metabolic Activation: RAT, HEPATOCYTES, BUTYLATED HYDROXYANISOLE, Method: STANDARD PLATE active; positive | Test System: CHINESE HAMSTER V-79, Strain/Indicator: V-79/6-THIOGUANINE, Metabolic Activation: RAT, HEPATOCYTES, Method: STANDARD PLATE active; positive | Test System: CHINESE HAMSTER V-79, Strain/Indicator: V-79/6-THIOGUANINE, Metabolic Activation: RAT, LIVER, S-9, PHENOBARBITAL, Method: STANDARD PLATE active; positive | Test System: CHINESE HAMSTER V-79, Strain/Indicator: V-79/8-AZAGUANINE, Metabolic Activation: CELL-MEDIATED, Method: STANDARD PLATE active; positive | Test System: CHINESE HAMSTER V-79, Strain/Indicator: V-79/OUABAIN, Metabolic Activation: RAT, HEPATOCYTES, BUTYLATED HYDROXYANISOLE, Method: STANDARD PLATE active; positive | Test System: CHINESE HAMSTER V-79, Strain/Indicator: V-79/OUABAIN, Metabolic Activation: RAT, HEPATOCYTES, Method: STANDARD PLATE active; positive | Test System: MOUSE LYMPHOMA, Strain/Indicator: L5178Y (TK+/TK-), Metabolic Activation: RAT, LIVER, S-9, AROCLOR 1254, Method: SUSPENSION/PLATE active; positive | Test System: MOUSE SPLENIC LYMPHOCYTES, Strain/Indicator: C57BL/6 (TK+/-)/C57BL/6 (HPRT), Metabolic Activation: NONE, Method: IN VIVO/SUSPENSION/PLATE active; positive | Test System: UDS MONKEY HEPATOCYTES, Strain/Indicator: THY INCORP, Metabolic Activation: AROCLOR 1254, Method: AUTORADIOGRAPHY active; positive | Test System: UDS MONKEY HEPATOCYTES, Strain/Indicator: THY INCORP, Metabolic Activation: NONE, Method: AUTORADIOGRAPHY active; positive | Test System: UDS MOUSE EPIDERMIS IN VIVO/IN VITRO, Strain/Indicator: HOS:HR-1/THYMIDINE INCORPORATION, Metabolic Activation: NONE, Method: LIQUID SCINTILLATION active; positive | Test System: UDS RAT HEPATOCYTES, Strain/Indicator: BROMODEOXYURIDINE INCORP, Metabolic Activation: NONE, Method: FLOW CYTOMETRIC ANALYSIS active; positive | Test System: UDS RAT HEPATOCYTES, Strain/Indicator: THY INCORP, Metabolic Activation: NONE, Method: AUTORADIOGRAPHY active; positive | Test System: UDS RODENT HEPATOCYTES, Strain/Indicator: THY INCORP (NON-S-PHASE), Method: AUTORADIOGRAPHY active; positive | Test System: UDS RODENT PRIMARY CELLS, Strain/Indicator: THY INCORP (NON-S-PHASE), Metabolic Activation: NONE, Method: AUTORADIOGRAPHY active; positive
inactive: End Point: IN VIVO MICRONUCLEUS, Test System: MAMMARY GLAND CELLS, Species: RAT, Strain/Sex: SPRAGUE-DAWLEY/FEMALE, Route: INTRAGASTRIC inactive; negative | Test System: AMES SALMONELLA TYPHIMURIUM, Strain/Indicator: TA1535, Metabolic Activation: NONE, Method: SPIRAL ASSAY inactive; negative | Test System: AMES SALMONELLA TYPHIMURIUM, Strain/Indicator: TA1535, Metabolic Activation: NONE, Method: STANDARD PLATE inactive; negative | Test System: AMES SALMONELLA TYPHIMURIUM, Strain/Indicator: TA1535, Metabolic Activation: RAT, LIVER, S-9, AROCLOR 1254, Method: SPIRAL ASSAY inactive; negative | Test System: AMES SALMONELLA TYPHIMURIUM, Strain/Indicator: TA1535, Metabolic Activation: RAT, LIVER, S-9, AROCLOR 1254, Method: STANDARD PLATE inactive; negative | Test System: CHINESE HAMSTER V-79, Strain/Indicator: V-79/6-THIOGUANINE, Metabolic Activation: NONE, Method: STANDARD PLATE inactive; negative | Test System: CHINESE HAMSTER V-79, Strain/Indicator: V-79/OUABAIN, Metabolic Activation: NONE, Method: STANDARD PLATE inactive; negative | Test System: E. COLI, Strain/Indicator: WP2 UVRA, Metabolic Activation: HAMSTER, LIVER, S-9, AROCLOR 1254, Method: STANDARD PLATE inactive; negative | Test System: E. COLI, Strain/Indicator: WP2 UVRA, Metabolic Activation: HAMSTER, LIVER, S-9, Method: STANDARD PLATE inactive; negative | Test System: E. COLI, Strain/Indicator: WP2 UVRA, Metabolic Activation: MOUSE, LIVER, S-9, AROCLOR 1254, Method: STANDARD PLATE inactive; negative | Test System: E. COLI, Strain/Indicator: WP2 UVRA, Metabolic Activation: MOUSE, LIVER, S-9, Method: STANDARD PLATE inactive; negative | Test System: E. COLI, Strain/Indicator: WP2 UVRA, Metabolic Activation: NONE, Method: STANDARD PLATE inactive; negative | Test System: E. COLI, Strain/Indicator: WP2 UVRA, Metabolic Activation: RAT, LIVER, S-9, AROCLOR 1254, Method: STANDARD PLATE inactive; negative | Test System: E. COLI, Strain/Indicator: WP2 UVRA, Metabolic Activation: RAT, LIVER, S-9, Method: STANDARD PLATE inactive; negative | Test System: MOUSE LYMPHOMA, Strain/Indicator: L5178Y (TK+/TK-), Metabolic Activation: NONE, Method: SUSPENSION/PLATE inactive; negative
